How the values were obtained:
Test in all cases: KINOMEscan
Type in all cases: binding
Conditions in all cases: read-out: percent of control
SRC = SRC (Homo sapiens (Human), UniProt P12931)
Procedure: (§1) In vitro profiling of Compound I-2 (1 μM) was performed using the DiscoveRx KINOMEscan® platform.

BRAF = BRAF (Homo sapiens (Human), UniProt P15056)
Procedure: as §1

YSK1 = YSK1 (Homo sapiens (Human), UniProt O00506)
Procedure: as §1

MAP4K5 = MAP4K5 (Homo sapiens (Human), UniProt Q9Y4K4)
Procedure: as §1

FER = FER (Homo sapiens (Human), UniProt P16591)
Procedure: as §1

ANKK1 = ANKK1 (Homo sapiens (Human), UniProt Q8NFD2)
Procedure: as §1

MST4 = MST4 (Homo sapiens (Human), UniProt Q9P289)
Procedure: as §1

LIMK2 = LIMK2 (Homo sapiens (Human), UniProt P53671)
Procedure: as §1

MET = MET (Homo sapiens (Human), UniProt P08581)
Sequence of MET (P08581 25-1390): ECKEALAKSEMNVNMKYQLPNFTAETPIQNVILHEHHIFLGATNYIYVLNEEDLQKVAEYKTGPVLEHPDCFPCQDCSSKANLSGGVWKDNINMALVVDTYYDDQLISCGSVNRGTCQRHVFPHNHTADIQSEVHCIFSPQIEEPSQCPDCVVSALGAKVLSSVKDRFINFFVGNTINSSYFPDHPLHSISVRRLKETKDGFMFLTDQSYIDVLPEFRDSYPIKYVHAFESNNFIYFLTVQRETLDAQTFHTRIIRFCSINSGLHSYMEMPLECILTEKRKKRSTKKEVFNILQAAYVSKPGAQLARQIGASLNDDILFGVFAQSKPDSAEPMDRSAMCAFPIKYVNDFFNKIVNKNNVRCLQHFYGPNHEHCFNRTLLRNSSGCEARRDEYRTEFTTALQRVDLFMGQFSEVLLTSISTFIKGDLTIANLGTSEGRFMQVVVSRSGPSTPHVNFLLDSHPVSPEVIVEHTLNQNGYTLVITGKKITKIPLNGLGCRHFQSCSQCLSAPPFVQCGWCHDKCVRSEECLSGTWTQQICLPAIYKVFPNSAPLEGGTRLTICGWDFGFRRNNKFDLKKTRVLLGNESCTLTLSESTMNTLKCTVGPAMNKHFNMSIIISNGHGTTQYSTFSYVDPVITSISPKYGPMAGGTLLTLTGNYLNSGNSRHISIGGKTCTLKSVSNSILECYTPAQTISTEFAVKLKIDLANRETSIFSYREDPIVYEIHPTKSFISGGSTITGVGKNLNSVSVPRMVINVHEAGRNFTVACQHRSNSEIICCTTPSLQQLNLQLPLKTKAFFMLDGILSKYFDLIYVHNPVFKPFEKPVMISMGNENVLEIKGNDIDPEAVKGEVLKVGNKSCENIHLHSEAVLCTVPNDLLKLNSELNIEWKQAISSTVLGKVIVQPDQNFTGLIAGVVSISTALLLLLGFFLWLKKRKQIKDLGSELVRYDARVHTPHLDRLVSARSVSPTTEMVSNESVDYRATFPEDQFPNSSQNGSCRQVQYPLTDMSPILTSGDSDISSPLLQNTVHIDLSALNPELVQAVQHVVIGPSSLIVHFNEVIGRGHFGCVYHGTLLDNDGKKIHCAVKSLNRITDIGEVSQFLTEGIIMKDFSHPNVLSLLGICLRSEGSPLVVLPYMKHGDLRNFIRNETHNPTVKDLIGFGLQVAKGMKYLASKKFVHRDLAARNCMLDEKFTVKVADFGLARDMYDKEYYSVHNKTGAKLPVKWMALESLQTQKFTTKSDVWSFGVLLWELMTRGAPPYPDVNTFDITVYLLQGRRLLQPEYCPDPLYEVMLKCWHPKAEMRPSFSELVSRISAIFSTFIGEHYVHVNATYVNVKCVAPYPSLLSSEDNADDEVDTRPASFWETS
Procedure: as §1

IRAK3 = IRAK3 (Homo sapiens (Human), UniProt Q9Y616)
Procedure: as §1

NIM1 = NIM1 (Homo sapiens (Human), UniProt Q8IY84)
Procedure: as §1

ACVR2B = ACVR2B (Homo sapiens (Human), UniProt Q13705)
Procedure: as §1

BMPR1A = BMPR1A (Homo sapiens (Human), UniProt P36894)
Procedure: as §1

ULK = ULK (Homo sapiens (Human), UniProt O75385)
Procedure: as §1

SgK110 = SgK110 (Homo sapiens (Human), UniProt P0C264)
Procedure: as §1

TNK1 = TNK1 (Homo sapiens (Human), UniProt Q13470)
Procedure: as §1

MLK1 = MLK1 (Homo sapiens (Human), UniProt P80192)
Procedure: as §1

[1] = molecular target: RSK1 (Kin.Dom.2-C-terminal) (Homo sapiens (Human), UniProt Q15418)
Procedure: as §1

PLK4 = PLK4 (Homo sapiens (Human), UniProt O00444)
Procedure: as §1

PIK3CG = PIK3CG (Homo sapiens (Human), UniProt P48736)
Procedure: as §1

CLK2 = CLK2 (Homo sapiens (Human), UniProt P49760)
Procedure: as §1

PRKR = PRKR (Homo sapiens (Human), UniProt P19525)
Sequence of PRKR (P19525 whole entry): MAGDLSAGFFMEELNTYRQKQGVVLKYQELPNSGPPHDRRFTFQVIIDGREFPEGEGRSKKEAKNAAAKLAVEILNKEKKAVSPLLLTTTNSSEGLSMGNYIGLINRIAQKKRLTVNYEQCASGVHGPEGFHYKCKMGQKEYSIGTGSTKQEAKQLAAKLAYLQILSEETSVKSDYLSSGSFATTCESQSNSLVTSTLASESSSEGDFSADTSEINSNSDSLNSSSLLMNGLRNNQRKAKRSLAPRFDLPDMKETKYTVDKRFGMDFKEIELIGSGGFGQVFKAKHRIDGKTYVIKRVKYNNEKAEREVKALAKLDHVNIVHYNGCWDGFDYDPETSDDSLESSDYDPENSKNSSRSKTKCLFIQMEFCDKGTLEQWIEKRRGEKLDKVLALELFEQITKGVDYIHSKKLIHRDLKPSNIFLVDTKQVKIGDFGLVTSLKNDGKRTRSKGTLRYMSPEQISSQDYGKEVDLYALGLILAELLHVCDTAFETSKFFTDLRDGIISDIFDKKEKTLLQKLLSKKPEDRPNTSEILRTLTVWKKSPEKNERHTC
Procedure: as §1

ITK = ITK (Homo sapiens (Human), UniProt Q08881)
Procedure: as §1

CAMK1D = CAMK1D (Homo sapiens (Human), UniProt Q8IU85)
Sequence of CAMK1D (Q8IU85 whole entry): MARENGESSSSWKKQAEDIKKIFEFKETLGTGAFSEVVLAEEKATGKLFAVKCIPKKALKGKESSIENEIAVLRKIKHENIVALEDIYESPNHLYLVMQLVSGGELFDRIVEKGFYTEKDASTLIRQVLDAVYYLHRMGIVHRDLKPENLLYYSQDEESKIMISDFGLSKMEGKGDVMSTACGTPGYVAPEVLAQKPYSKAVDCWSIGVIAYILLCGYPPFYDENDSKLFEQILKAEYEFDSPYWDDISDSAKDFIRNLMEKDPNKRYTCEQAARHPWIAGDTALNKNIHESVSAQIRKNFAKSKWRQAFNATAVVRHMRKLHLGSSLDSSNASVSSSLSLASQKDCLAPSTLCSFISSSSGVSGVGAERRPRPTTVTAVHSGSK
Procedure: as §1

PIK3CA(M1043I) = PIK3CA(M1043I) (Homo sapiens (Human), UniProt P42336, M1043I)
Procedure: as §1

CAMK1 = CAMK1 (Homo sapiens (Human), UniProt Q14012)
Procedure: as §1

KIT(L576P) = KIT(L576P) (Homo sapiens (Human), UniProt P10721, L576P)
Procedure: as §1

SNARK = SNARK (Homo sapiens (Human), UniProt Q9H093)
Sequence of SNARK (Q9H093 whole entry): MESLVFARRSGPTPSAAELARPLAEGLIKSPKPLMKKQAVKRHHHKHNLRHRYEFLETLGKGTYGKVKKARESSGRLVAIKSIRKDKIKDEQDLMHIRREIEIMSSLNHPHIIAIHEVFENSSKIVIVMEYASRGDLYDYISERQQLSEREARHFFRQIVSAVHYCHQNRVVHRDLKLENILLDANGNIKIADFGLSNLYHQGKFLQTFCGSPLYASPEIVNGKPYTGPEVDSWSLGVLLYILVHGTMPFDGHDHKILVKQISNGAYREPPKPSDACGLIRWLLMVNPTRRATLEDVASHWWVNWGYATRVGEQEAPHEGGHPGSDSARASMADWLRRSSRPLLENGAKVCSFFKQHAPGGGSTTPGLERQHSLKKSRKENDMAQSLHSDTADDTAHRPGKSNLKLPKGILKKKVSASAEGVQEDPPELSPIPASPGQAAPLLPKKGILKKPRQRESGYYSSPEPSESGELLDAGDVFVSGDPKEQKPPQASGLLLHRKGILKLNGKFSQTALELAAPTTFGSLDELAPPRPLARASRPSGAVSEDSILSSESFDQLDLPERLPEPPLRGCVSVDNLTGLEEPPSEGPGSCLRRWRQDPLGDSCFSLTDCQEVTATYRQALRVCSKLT
Procedure: as §1

WNK3 = WNK3 (Homo sapiens (Human), UniProt Q9BYP7)
Procedure: as §1

PIK4CB = PIK4CB (Homo sapiens (Human), UniProt Q9UBF8)
Sequence of PIK4CB (Q9UBF8 whole entry): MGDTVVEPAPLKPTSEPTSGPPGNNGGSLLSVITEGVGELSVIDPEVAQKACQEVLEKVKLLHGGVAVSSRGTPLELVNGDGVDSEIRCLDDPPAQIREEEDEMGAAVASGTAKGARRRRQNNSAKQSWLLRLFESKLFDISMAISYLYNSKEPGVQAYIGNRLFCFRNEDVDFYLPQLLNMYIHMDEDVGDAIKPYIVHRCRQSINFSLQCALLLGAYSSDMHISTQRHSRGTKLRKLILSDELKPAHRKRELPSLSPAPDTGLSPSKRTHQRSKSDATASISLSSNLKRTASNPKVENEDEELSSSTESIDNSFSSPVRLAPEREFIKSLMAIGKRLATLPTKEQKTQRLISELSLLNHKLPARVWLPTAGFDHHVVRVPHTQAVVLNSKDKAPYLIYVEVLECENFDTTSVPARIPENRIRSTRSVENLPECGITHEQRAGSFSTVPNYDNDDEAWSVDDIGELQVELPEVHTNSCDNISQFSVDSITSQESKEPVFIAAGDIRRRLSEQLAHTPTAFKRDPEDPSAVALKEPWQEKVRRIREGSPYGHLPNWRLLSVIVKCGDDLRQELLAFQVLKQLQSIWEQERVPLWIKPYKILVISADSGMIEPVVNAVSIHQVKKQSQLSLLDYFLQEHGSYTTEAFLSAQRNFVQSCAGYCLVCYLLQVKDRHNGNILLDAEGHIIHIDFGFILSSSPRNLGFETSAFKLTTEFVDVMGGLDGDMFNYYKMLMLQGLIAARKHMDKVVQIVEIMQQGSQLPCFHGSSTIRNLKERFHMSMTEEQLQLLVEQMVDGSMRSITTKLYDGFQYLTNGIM
Procedure: as §1

TTK = TTK (Homo sapiens (Human), UniProt P33981)
Procedure: as §1

LYN = LYN (Homo sapiens (Human), UniProt P07948)
Procedure: as §1

KIT(A829P) = KIT(A829P) (Homo sapiens (Human), UniProt P10721, A829P)
Procedure: as §1

MEK5 = MEK5 (Homo sapiens (Human), UniProt Q13163)
Procedure: as §1

MET(M1250T) = MET(M1250T) (Homo sapiens (Human), UniProt P08581, M1250T)
Procedure: as §1

LIMK1 = LIMK1 (Homo sapiens (Human), UniProt P53667)
Sequence of LIMK1 (P53667 whole entry): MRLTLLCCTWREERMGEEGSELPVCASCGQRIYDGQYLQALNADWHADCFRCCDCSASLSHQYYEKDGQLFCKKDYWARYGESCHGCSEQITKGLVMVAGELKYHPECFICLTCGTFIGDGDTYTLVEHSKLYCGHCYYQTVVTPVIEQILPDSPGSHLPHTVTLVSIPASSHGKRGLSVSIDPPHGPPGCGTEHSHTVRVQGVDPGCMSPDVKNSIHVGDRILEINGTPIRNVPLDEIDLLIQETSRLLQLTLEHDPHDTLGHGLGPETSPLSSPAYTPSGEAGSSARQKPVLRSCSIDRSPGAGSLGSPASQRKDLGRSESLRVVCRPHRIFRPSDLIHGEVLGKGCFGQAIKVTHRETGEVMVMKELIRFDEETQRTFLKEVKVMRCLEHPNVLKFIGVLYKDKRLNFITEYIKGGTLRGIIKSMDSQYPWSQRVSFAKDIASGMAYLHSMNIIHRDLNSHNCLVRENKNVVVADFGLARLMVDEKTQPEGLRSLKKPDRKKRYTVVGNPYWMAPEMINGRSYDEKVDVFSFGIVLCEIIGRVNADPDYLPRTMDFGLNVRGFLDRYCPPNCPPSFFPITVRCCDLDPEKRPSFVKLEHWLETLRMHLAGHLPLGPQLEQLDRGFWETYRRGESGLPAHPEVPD
Procedure: as §1

WEE1 = WEE1 (Homo sapiens (Human), UniProt P30291)
Procedure: as §1

PIK3CA(E545A) = PIK3CA(E545A) (Homo sapiens (Human), UniProt P42336, E545A)
Procedure: as §1

SGK = SGK (Homo sapiens (Human), UniProt O00141)
Sequence of SGK (O00141 whole entry): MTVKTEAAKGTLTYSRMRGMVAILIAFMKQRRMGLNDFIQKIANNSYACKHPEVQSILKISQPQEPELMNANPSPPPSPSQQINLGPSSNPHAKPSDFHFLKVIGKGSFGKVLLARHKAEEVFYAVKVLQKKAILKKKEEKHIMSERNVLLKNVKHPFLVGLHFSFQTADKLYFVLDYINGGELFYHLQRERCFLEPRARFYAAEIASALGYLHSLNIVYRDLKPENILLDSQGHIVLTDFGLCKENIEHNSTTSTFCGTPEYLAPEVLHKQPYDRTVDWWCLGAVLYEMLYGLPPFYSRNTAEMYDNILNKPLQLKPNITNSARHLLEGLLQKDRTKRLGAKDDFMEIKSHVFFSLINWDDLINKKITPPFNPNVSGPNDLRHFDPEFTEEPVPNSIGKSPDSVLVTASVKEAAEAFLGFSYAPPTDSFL
Procedure: as §1

Compound | remaining binding at 1 µM (SRC) | remaining binding at 1 µM (BRAF) | remaining binding at 1 µM (YSK1) | remaining binding at 1 µM (MAP4K5) | remaining binding at 1 µM (FER) | remaining binding at 1 µM (ANKK1) | remaining binding at 1 µM (MST4) | remaining binding at 1 µM (LIMK2) | remaining binding at 1 µM (MET) | remaining binding at 1 µM (IRAK3) | remaining binding at 1 µM (NIM1) | remaining binding at 1 µM (ACVR2B) | remaining binding at 1 µM (BMPR1A) | remaining binding at 1 µM (ULK) | remaining binding at 1 µM (SgK110) | remaining binding at 1 µM (TNK1) | remaining binding at 1 µM (MLK1) | remaining binding at 1 µM [1] | remaining binding at 1 µM (PLK4) | remaining binding at 1 µM (PIK3CG) | also measured
CCN1CCN(Cc2cc(NC(=O)c3ccc(C)c(-c4ccc5nc(NC(=O)C6CC6)cn5n4)c3)cc(C(F)(F)F)c2)CC1 [Compound I-2, 3-(2-(cyclopropanecarboxamido)imidazo[1,2-b]pyridazin-6-yl)-N-(3-((4-ethylpiperazin-1-yl)methyl)-5-(trifluoromethyl)phenyl)-4-methylbenzamide] | 0% | 11% | 61% | 0.7% | 29% | 100% | 92% | 96% | 9.7% | 90% | 99% | 96% | 99% | 89% | 75% | 63% | 75% | 100% | 81% | 99% | remaining binding at 1 µM (CLK2): 48%; remaining binding at 1 µM (PRKR): 97%; remaining binding at 1 µM (ITK): 1.4%; remaining binding at 1 µM (CAMK1D): 97%; remaining binding at 1 µM (PIK3CA(M1043I)): 100%; remaining binding at 1 µM (CAMK1): 92%; remaining binding at 1 µM (KIT(L576P)): 0%; remaining binding at 1 µM (SNARK): 100%; remaining binding at 1 µM (WNK3): 92%; remaining binding at 1 µM (PIK4CB): 97%; remaining binding at 1 µM (TTK): 83%; remaining binding at 1 µM (LYN): 0.55%; remaining binding at 1 µM (KIT(A829P)): 0%; remaining binding at 1 µM (MEK5): 21%; remaining binding at 1 µM (MET(M1250T)): 9.9%; remaining binding at 1 µM (LIMK1): 87%; remaining binding at 1 µM (WEE1): 94%; remaining binding at 1 µM (PIK3CA(E545A)): 91%; remaining binding at 1 µM (SGK): 83%
CCN1CCN(Cc2cc(NC(=O)c3ccc(C)c(-c4ccc5nc(NC(=O)C6CC6)cn5c4)c3)cc(C(F)(F)F)c2)CC1 [Compound I-6, 3-(2-(cyclopropanecarboxamido)imidazo[1,2-a]pyridin-6-yl)-N-(3-((4-ethylpiperazin-1-yl)methyl)-5-(trifluoromethyl)phenyl)-4-methylbenzamide] | 0% | 21% | 100% | 3.2% | 6% | 100% | 100% | 100% | 14% | 93% | 88% | 100% | 92% | 100% | 57% | 31% | 94% | 96% | 95% | 92% | remaining binding at 1 µM (CLK2): 100%; remaining binding at 1 µM (PRKR): 95%; remaining binding at 1 µM (ITK): 5.8%; remaining binding at 1 µM (CAMK1D): 93%; remaining binding at 1 µM (PIK3CA(M1043I)): 73%; remaining binding at 1 µM (CAMK1): 95%; remaining binding at 1 µM (KIT(L576P)): 1.8%; remaining binding at 1 µM (SNARK): 100%; remaining binding at 1 µM (WNK3): 83%; remaining binding at 1 µM (PIK4CB): 96%; remaining binding at 1 µM (TTK): 83%; remaining binding at 1 µM (LYN): 0.6%; remaining binding at 1 µM (KIT(A829P)): 12%; remaining binding at 1 µM (MEK5): 17%; remaining binding at 1 µM (MET(M1250T)): 42%; remaining binding at 1 µM (LIMK1): 96%; remaining binding at 1 µM (WEE1): 100%; remaining binding at 1 µM (PIK3CA(E545A)): 100%; remaining binding at 1 µM (SGK): 92%
